The results in this text go back to patent US8058243B2, “Method for treating a brain cancer with ifenprodil” (HSC Research and Development Limited Partnership, priority 2006, dated 2011).

Structures can show the parent of a compound that is named as a salt. Where two headings read alike, the source gives them in different places.

The subject of the test is murine neural precursor cells (neurosphere cultures). Description: HTS of LOPAC library against secondary neurosphere cultures, MTT proliferation assay at 3 μM, day 7 (z score, P value). It counts as cell-based, mouse.
Where [1] appears, read: LOPAC library screen at 3 μM, secondary neurosphere cultures, MTT.
Where [2] appears, read: primary LOPAC screen, 3 μM, MTT, neurosphere proliferation.
Setting [3] is: yes/no: significantly inhibited neurosphere proliferation in the primary screen.
The mark [4] stands for this setting: LOPAC screen, neurosphere MTT proliferation, 3 μM, day 7.
The mark [5] stands for this setting: yes/no: significantly inhibited neurosphere proliferation (P<0.01) in primary screen.
Setting [6] is: LOPAC primary screen, neurosphere MTT proliferation, 3 μM, day 7.
The mark [7] stands for this setting: yes = significantly inhibited neurosphere proliferation (P<0.01) in the primary screen.
The mark [8] stands for this setting: yes/no: significantly inhibited neurosphere proliferation in primary screen.
Where [9] appears, read: LOPAC library screen, 3 μM, MTT, secondary neurosphere cultures, day 7.
Where [10] appears, read: yes/no: significantly inhibited neurosphere proliferation (P<0.01) in the primary screen.
Setting [11] is: LOPAC library screen, 3 μM, MTT, neurosphere cultures.

Take `NCCNC(=O)Cc1ccc(NC(=O)Cc2ccc(Nc3ncnc4c3ncn4[C@@H]3O[C@H](CO)[C@@H](O)[C@H]3O)cc2)cc1` [Adenosine amine congener]: under setting [1], the “Z Score” value is listed as −0.3345. The Z score under setting [2] is reported as −0.334. Moreover, the Activity entry under setting [3] is on record as “no”.

Regarding `O=C(O)[C@@H]1C[C@H](C(=O)O)N1` [cis-Azetidine-2,4-dicarboxylic acid], under “168 h, 3 µM”, the “Z Score” value is −2.251 and the Z score is on record as −2.251. In addition, the Activity result under setting [3] was “no”.

`Cc1nc2sccn2c(=O)c1CCN1CCC(=C(c2ccccc2)c2ccc(F)cc2)CC1` [Diacylglycerol kinase inhibitor I]: the “Z Score” value was −1.782. For the same compound, the Z score under setting [4] is given as −1.782. For the same compound, the Activity entry under setting [5] is recorded as “no”.

As for `Cc1scc2c1N(C(=O)CN1CCN(C)CC1)c1ccccc1NC2=O` [Telenzepine dihydrochloride], for the setting “168 h, 3 µM”, the “Z Score” value worked out at 0.3813 and the Z score was 0.381. Under setting [3], the Activity result is given as “no”.

Take `O=C(Nc1cccc(C(=O)Nc2ccc(S(=O)(=O)[O-])c3cc(S(=O)(=O)[O-])cc(S(=O)(=O)[O-])c23)c1)Nc1cccc(C(=O)Nc2ccc(S(=O)(=O)[O-])c3cc(S(=O)(=O)[O-])cc(S(=O)(=O)[O-])c23)c1.[Na+].[Na+].[Na+].[Na+].[Na+].[Na+]` [NF 023]: the “Z Score” value is reported as 1.115. This compound also displayed a Z score under setting [6] of 1.115. Moreover, under setting [7], the Activity entry is “no”.

In the case of `N#CC(C#N)=Cc1ccc([N+](=O)[O-])c(O)c1` [Tyrphostin AG 126], the “Z Score” value under setting [1] is listed as −0.4102. Under setting [2], this compound yielded a Z score of −0.410. Also, the Activity entry under setting [3] is on record as “no”.

With `NC(=O)c1ccc(OCC(O)CN2CC=C(c3ccc(F)cc3)CC2)cc1` (stereo not drawn) [Ro 8-4304], the “Z Score” value is reported as −2.188. Moreover, the Z score under setting [6] is −2.188. In addition, the Activity result under setting [8] was “no”.

As for `CCc1cccc(N(C)C(N)=Nc2cccc3ccccc23)c1` [CNS-1102], the Activity result is “yes”. Under setting [9], the “Z Score” value was −3.782. Under setting [6], this compound returned a Z score of −3.782.

Consider `Cn1c(=O)[nH]c2ncn(C)c2c1=O` [1,7-Dimethylxanthine], for which, where the note is “168 h, 3 µM”, the “Z Score” value is on record as −0.6623 and the Z score is recorded as −0.662. Moreover, the Activity result under setting [5] is listed as “no”.

Turning to `CC(C)[C@H]1CN[C@H](C(=O)O)[C@H]1CC(=O)O` [Dihydrokainic acid], the “Z Score” value is 1.329. Moreover, the Z score under setting [4] is 1.329. Besides, the Activity result under setting [5] is recorded as “no”.

As for `COc1ccc(C2CNC(=O)C2)cc1OC1CCCC1` (stereo not drawn) [Rolipram], the “Z Score” value under setting [9] is reported as −2.091. For the same compound, under setting [6], the Z score is given as −2.091. Moreover, under setting [8], the Activity result was “no”.

For `Cc1c(CC(C)(C)C(=O)O)n(Cc2ccc(Cl)cc2)c2ccc(F)cc12` [L-655,240], the “Z Score” value is listed as −0.121. Besides, the Z score under setting [6] is on record as −0.121. The Activity result under setting [5] was “no”.

As to `C#CCN(C)Cc1ccccc1` [Pargyline hydrochloride], the “Z Score” value under setting [1] is listed as −0.2794. This compound also had a Z score under setting [6] of −0.279. Also, the Activity result under setting [8] is listed as “no”.

As for `CC(=O)NCCc1c[nH]c2ccccc12` [N-Acetyltryptamine], the “Z Score” value was 1.02. Also, the Z score under setting [2] is 1.020. Further, the Activity entry under setting [3] was “no”.

Regarding `CCNC(=O)[C@H]1O[C@@H](n2cnc3c(N)nc(NCCc4ccc(CCC(=O)O)cc4)nc32)[C@H](O)[C@@H]1O` [CGS-21680 hydrochloride], under “168 h, 3 µM”, the “Z Score” value is −1.225 and the Z score is −1.225. Besides, the Activity entry under setting [10] was “no”.

Regarding `CC12NC(Cc3ccccc31)c1ccccc12.O=C(O)/C=C\C(=O)O` (single isomer, unassigned; (+)) [(+)-MK-801 hydrogen maleate], the “Z Score” value is −0.09805. The Z score under setting [6] was −0.098. Moreover, under setting [7], the Activity entry is “no”.

For `COc1ccc2c(c[n+](C)c3c4cc5c(cc4ccc23)OCO5)c1OC` [Chelerythrine (36), Chelerythrine, reference compound], under setting [9], the “Z Score” value is −10.67. Under setting [6], the Z score is −10.671. In addition, the Activity result under setting [10] was “yes”.

Take `CC/C(=C(\c1ccccc1)c1ccc(OCCN(C)C)cc1)c1ccccc1` [Tamoxifen citrate]: the Activity result was “yes”. Moreover, the “Z Score” value under setting [9] is listed as −10.64. This compound also gave a Z score under setting [6] of −10.643.

For the compound `CN1CCC[C@@H]1CCO[C@](C)(c1ccccc1)c1ccc(Cl)cc1` [Clemastine fumarate], for the setting “168 h, 3 µM”, the “Z Score” value is listed as −2.023 and the Z score is −2.023.

Turning to `Cl.N[C@@H](Cc1c[nH]cn1)C(=O)O` [L-Histidine hydrochloride], the “Z Score” value is −1.421. In addition, the Z score under setting [6] is −1.421. For the same compound, the Activity result under setting [5] is reported as “no”.

In the case of `C=C/C(C)=C/[C@@]1(C)SC(=O)C(C)=C1O` [Thiolactomycin], the “Z Score” value under setting [9] is recorded as −1.3. The same compound yielded a Z score under setting [6] of −1.300. For the same compound, the Activity entry under setting [8] was “no”.

For `Cc1nc2ccccn2c(=O)c1CCN1CCC(C(=O)c2ccc(F)cc2)CC1` [Pirenperone], the “Z Score” value under setting [11] stood at 0.2279. For the same compound, the Z score under setting [6] was found to be 0.228. The Activity entry under setting [10] is listed as “no”.

As to `CSc1ccc2c(c1)N(CCC1CCCCN1C)c1ccccc1S2` (stereo not drawn) [Thioridazine hydrochloride], where the note is “168 h, 3 µM”, the “Z Score” value stood at 0.2356 and the Z score is listed as 0.236. Further, the Activity result under setting [10] is reported as “no”.

Turning to `CNCC[C@H](Oc1ccc(C(F)(F)F)cc1)c1ccccc1.Cl` [S-(+)-Fluoxetine hydrochloride], the “Z Score” value under setting [1] is reported as −0.8088. The same compound displayed a Z score under setting [6] of −0.809. Under setting [5], the Activity result was “no”.

As to `CCN(c1nc(N)c(C(=O)N=C(N)N)nc1Cl)C(C)C` [5-(N-Ethyl-N-isopropyl)amiloride], the “Z Score” value is −0.2886. The Z score under setting [2] was −0.289. The Activity result under setting [3] is listed as “no”.

As to `CCCN1CCC[C@@H](c2cccc(O)c2)C1.Cl` [S(−)-3PPP hydrochloride], the “Z Score” value was −0.4205. Also, the Z score under setting [6] is reported as −0.421. Besides, under setting [8], the Activity result is reported as “no”.

As for `COC(=O)C(C)(N)Cc1ccc(O)cc1.Cl` (racemic) [alpha-Methyl-DL-tyrosine methyl ester hydrochloride], for the setting “168 h, 3 µM”, the “Z Score” value was determined as 0.3703 and the Z score stood at 0.370. The Activity entry under setting [10] is listed as “no”.

Consider `CC[N+](C)(C)Cc1ccccc1Br` [Bretylium tosylate], for which the Activity entry is listed as “no”. The “Z Score” value under setting [11] is reported as −0.001709. The compound further yielded a Z score under setting [4] of −0.002.

For `C/C=C(/C)C(=O)O[C@H]1C(C)=C2[C@H]([C@@H]1OC(=O)CCCCCCC)[C@@](C)(OC(C)=O)C[C@H](OC(=O)CCC)[C@@]1(O)[C@H]2OC(=O)[C@@]1(C)O` [Thapsigargin], under setting [9], the “Z Score” value was −9.559. This compound also showed a Z score under setting [6] of −9.559. In addition, the Activity entry under setting [7] is listed as “yes”.

Consider `Cn1cnc2c(NCc3ccccc3)nc(NCCO)nc21` [Olomoucine], for which, under “168 h, 3 µM”, the “Z Score” value is listed as 1.553 and the Z score was found to be 1.553.

Consider `NC(CCP(=O)(O)O)C(=O)O` (racemic) [(±)-2-Amino-4-phosphonobutyric acid], for which the Z score under setting [2] is reported as 1.893. The Activity entry under setting [3] is listed as “no”.
